Laboratory results published in publication PMC6273578, “Design, Synthesis and Biological Evaluation of Benzohydrazide Derivatives Containing Dihydropyrazoles as Potential EGFR Kinase Inhibitors” (Molecules, 2016).
Read-outs that look alike come from different tables or passages of the source.

How the values were obtained:
MCF-7 cells = experiment: MTT antiproliferative assay, MCF-7; assay type: cell-based, human
Protocol: (§1) IC50 values of the test compounds against A549, MCF-7, Hela and HepG2 cells were obtained from State Key Laboratory of Pharmaceutical Biotechnology, Nanjing University, and were determined by a standard (MTT)-based colorimetric assay (Beyotime Inst. Biotech., Nanjing, China). Tumor cell lines were grown to mid-log phase and then diluted to […] making sure they were seeded in 96-well plates (Philas, Nanjing, China) at a density of 5 × 10^3–1 × 10^4 cells per well. The outer wells containing 1 × PBS solution of the plate are not used for the assay to avoid the possibility of edge effects. The plate was incubated at 37 °C in a 5% CO2 incubator in DMEM containing 10% fetal bovine serum (FBS, Gibco, Waltham, MA, USA) for 24 h. Then, we added a 100-μL series concentration of drug-containing medium into the wells to maintain the final concentration of drug as 100, 10, 1 and 0.1 μmol/L. After 12 h, cell survival was determined by the addition of a MTT (3-(4,5-dimethylthiazol-2-yl)-2,5-diphenyl trtrazolium bromide) solution (10 μL of 5 mg/mL MTT in 1 × PBS). We waited for 4 h proliferation, discarded the medium and quickly added 150 μL DMSO per well, shaking the plates well for 10 min to ensure complete dissolution. Optical absorbance was measured at 570 nm on a microplate reader (Bio-Rad, Hercules, CA, USA). Survival ratios are expressed in percentages with respect to untreated cells. The experiments were replicated at least three times to verify the methodology reproducibility when using the above-mentioned conditions.

HepG2 cells = experiment: MTT antiproliferative assay, HepG2; assay type: cell-based, human; settings: read-out: In vitro antiproliferative activity IC50, HepG2
Protocol: as §1

[1] = target: epidermal growth factor receptor (EGFR) (Homo sapiens, UniProt P00533); experiment: EGFR kinase inhibition, solid-phase ELISA assay
Chain of epidermal growth factor receptor (EGFR) (P00533 25-1210): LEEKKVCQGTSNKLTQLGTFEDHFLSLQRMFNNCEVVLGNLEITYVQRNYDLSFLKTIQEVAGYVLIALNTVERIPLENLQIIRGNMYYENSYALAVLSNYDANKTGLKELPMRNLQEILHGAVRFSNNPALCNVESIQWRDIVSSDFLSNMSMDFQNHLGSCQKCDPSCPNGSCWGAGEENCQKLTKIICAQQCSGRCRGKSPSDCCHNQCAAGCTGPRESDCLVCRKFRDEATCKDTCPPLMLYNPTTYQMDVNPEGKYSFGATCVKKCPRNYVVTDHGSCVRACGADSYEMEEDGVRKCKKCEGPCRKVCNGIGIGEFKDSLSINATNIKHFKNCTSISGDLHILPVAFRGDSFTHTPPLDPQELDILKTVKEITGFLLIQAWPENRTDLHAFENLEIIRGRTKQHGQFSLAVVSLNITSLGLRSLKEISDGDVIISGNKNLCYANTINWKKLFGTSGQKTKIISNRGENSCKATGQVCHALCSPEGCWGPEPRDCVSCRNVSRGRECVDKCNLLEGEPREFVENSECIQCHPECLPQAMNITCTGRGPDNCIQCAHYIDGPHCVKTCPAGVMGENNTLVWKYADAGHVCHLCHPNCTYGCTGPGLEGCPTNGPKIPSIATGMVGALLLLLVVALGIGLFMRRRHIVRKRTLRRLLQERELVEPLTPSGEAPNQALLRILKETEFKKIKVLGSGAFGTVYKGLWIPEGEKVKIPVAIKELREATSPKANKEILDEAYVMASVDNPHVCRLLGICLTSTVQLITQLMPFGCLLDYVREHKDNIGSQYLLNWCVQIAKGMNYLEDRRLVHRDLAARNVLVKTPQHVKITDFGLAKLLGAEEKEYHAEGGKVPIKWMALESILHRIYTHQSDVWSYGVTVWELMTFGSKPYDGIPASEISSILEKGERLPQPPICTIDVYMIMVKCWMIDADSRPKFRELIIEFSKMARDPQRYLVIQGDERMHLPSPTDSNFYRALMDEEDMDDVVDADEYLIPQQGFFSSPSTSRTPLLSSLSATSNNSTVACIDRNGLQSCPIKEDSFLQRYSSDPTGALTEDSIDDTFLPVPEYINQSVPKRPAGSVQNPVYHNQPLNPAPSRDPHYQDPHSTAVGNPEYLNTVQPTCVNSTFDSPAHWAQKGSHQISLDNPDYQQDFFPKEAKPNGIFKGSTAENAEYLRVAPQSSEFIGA
Protocol: All these newly synthesized compounds were evaluated for their inhibitory activities against EGFR kinases using a solid-phase ELISA assay.
EGFR tyrosine kinase activity was determined by an enzyme linked-immunosorbent assay (ELISA) in 96-well plates precoated in a 10 mL reaction volume including 4 mL diluted test compounds, 4 mL substrate and 2 mL ATP. […] The plates were then aspirated and washed twice with 200 mL 0.9% (w/v) NaCl, and incorporation of Pi was determined with an LX300 Epson Diagnostic microplate reader. […] The experiments were replicated at least three times to verify the methodology reproducibility when using the above-mentioned conditions.

A549 cells = experiment: MTT antiproliferative assay, A549; assay type: cell-based, human; settings: read-out: In vitro antiproliferative activity IC50, A549
Protocol: as §1

[2] = tested on: 293T human kidney epithelial cells; experiment: Cytotoxicity test (MTT) on 293T cells; settings: read-out: median cytotoxic concentration CC50; 293T cells, MTT assay, 24 h
Protocol: (§2) The cytotoxic activity in vitro was measured by the colorimetric MTT assay. […] For the cytotoxicity assay, 20 μL of MTT (5 mg/mL) was added per well 4 h before the end of the incubation. After removing the supernatant, 200 μL DMSO was added to dissolve the formazan crystals. The absorbance at λ 570 nm was read on an LX300 Epson Diagnostic microplate reader, untreated cells were used as negative controls.

HeLa cells = experiment: MTT antiproliferative assay, HeLa; assay type: cell-based, human; settings: read-out: In vitro antiproliferative activity IC50, HeLa
Protocol: as §1

[3] = Cytotoxicity test (MTT) on 293T cells; settings: human, 293T human kidney epithelial cells
Protocol: as §2

EGFR = settings: read-out: EGFR inhibitory activity IC50, cited from earlier work
[4] = read-out: In vitro antiproliferative activity IC50, MCF-7
[5] = read-out: Inhibition activity IC50 against EGFR, solid-phase ELISA assay
[6] = Homo sapiens, MCF7, read-out: In vitro antiproliferative activity IC50, MCF-7

IC50 (MCF-7 cells; [4]) [µM]	IC50 (HepG2 cells) [µM]	IC50 [1, 5] [µM]	IC50 (A549 cells) [µM]	IC50 (HeLa cells) [µM]	Molecule	CC50 [2] [µM]	further results
21	28.8	8.47	14.5	22.5	COc1cccc(/C=N/NC(=O)c2ccc(N3N=C(c4ccccc4)CC3c3ccc4ccccc4c3)cc2)c1 (stereo not shown) [Compound H1, (E)-N′-(3-Methoxybenzylidene)-4-(5-(naphthalen-2-yl)-3-phenyl-4,5-dihydro-1H-pyrazol-1-yl)benzo-hydrazide]	98.6	
1.52	0.67	0.65	1.41	0.6	COc1cccc(/C=N/NC(=O)c2ccc(N3N=C(c4ccccc4C)CC3c3ccc4ccccc4c3)cc2)c1 (stereo not shown) [Compound H2, (E)-N′-(3-Methoxybenzylidene)-4-(5-(naphthalen-2-yl)-3-(o-tolyl)-4,5-dihydro-1H-pyrazol-1-yl)benzo-hydrazide]	87.5	
2.89	3.54	2.12	3.02	2.45	COc1cccc(/C=N/NC(=O)c2ccc(N3N=C(c4cccc(C)c4)CC3c3ccc4ccccc4c3)cc2)c1 (stereo not shown) [Compound H3, (E)-N′-(3-Methoxybenzylidene)-4-(5-(naphthalen-2-yl)-3-(m-tolyl)-4,5-dihydro-1H-pyrazol-1-yl)benzo-hydrazide]	92.3	
0.69	0.51	0.23	0.43	0.45	COc1cccc(/C=N/NC(=O)c2ccc(N3N=C(c4ccc(C)cc4)CC3c3ccc4ccccc4c3)cc2)c1 (stereo not shown) [Compound H4, (E)-N′-(3-Methoxybenzylidene)-4-(5-(naphthalen-2-yl)-3-(p-tolyl)-4,5-dihydro-1H-pyrazol-1-yl)benzo-hydrazide]	98.8	
18.4	26.7	7.89	13.3	20.7	COc1ccc(/C=N/NC(=O)c2ccc(N3N=C(c4ccccc4)CC3c3ccc4ccccc4c3)cc2)cc1 (stereo not shown) [Compound H17, (E)-N′-(4-Methoxybenzylidene)-4-(5-(naphthalen-2-yl)-3-phenyl-4,5-dihydro-1H-pyrazol-1-yl)benzo-hydrazide]	94.2	
1.63	0.56	0.48	1.22	0.78	COc1ccc(/C=N/NC(=O)c2ccc(N3N=C(c4ccccc4C)CC3c3ccc4ccccc4c3)cc2)cc1 (stereo not shown) [Compound H18, (E)-N′-(4-Methoxybenzylidene)-4-(5-(naphthalen-2-yl)-3-(o-tolyl)-4,5-dihydro-1H-pyrazol-1-yl)benzo-hydrazide]	90.6	
2.45	3.26	1.25	2.24	1.19	COc1ccc(/C=N/NC(=O)c2ccc(N3N=C(c4cccc(C)c4)CC3c3ccc4ccccc4c3)cc2)cc1 (stereo not shown) [Compound H19, (E)-N′-(4-Methoxybenzylidene)-4-(5-(naphthalen-2-yl)-3-(m-tolyl)-4,5-dihydro-1H-pyrazol-1-yl)benzo-hydrazide]	92.6	
					COc1ccc(/C=N/NC(=O)c2ccc(N3N=C(c4ccc(F)cc4)CC3c3ccc4ccccc4c3)cc2)cc1 (stereo not shown) [Compound H27, (E)-4-(3-(4-Fluorophenyl)-5-(naphthalen-2-yl)-4,5-dihydro-1H-pyrazol-1-yl)-N'-(4-methoxybenzylidene)-benzohydrazide]		IC50 (MCF-7 cells; [6]): 59 µM; IC50 (HepG2 cells; Homo sapiens): 62.9 µM; IC50 [1]: 13.8 µM; IC50 (A549 cells; Homo sapiens): 44.1 µM; melting point: 236 to 238 °C; CC50 at 24 h [3]: 89.4 µM; IC50 (HeLa cells; Homo sapiens): 54.2 µM
					COc1ccc(/C=N/NC(=O)c2ccc(N3N=C(c4cc(F)cc(F)c4)CC3c3ccc4ccccc4c3)cc2)cc1 (stereo not shown) [Compound H28, (E)-4-(3-(3,5-Difluorophenyl)-5-(naphthalen-2-yl)-4,5-dihydro-1H-pyrazol-1-yl)-N′-(4-methoxy-benzylidene)benzohydrazide]		IC50 (MCF-7 cells; [6]): 56.1 µM; IC50 (HepG2 cells; Homo sapiens): 48.1 µM; IC50 [1]: 12.3 µM; IC50 (A549 cells; Homo sapiens): 39.4 µM; melting point: 238 to 240 °C; CC50 at 24 h [3]: 82.2 µM; IC50 (HeLa cells; Homo sapiens): 47.7 µM
					COc1ccc(/C=N/NC(=O)c2ccc(N3N=C(c4cccc(Cl)c4)CC3c3ccc4ccccc4c3)cc2)cc1 (stereo not shown) [Compound H29, (E)-4-(3-(3-Chlorophenyl)-5-(naphthalen-2-yl)-4,5-dihydro-1H-pyrazol-1-yl)-N′-(4-methoxybenzylidene)-benzohydrazide]		IC50 (MCF-7 cells; [6]): 50.9 µM; IC50 (HepG2 cells; Homo sapiens): 41 µM; IC50 [1]: 11.2 µM; IC50 (A549 cells; Homo sapiens): 33.2 µM; melting point: 241 to 243 °C; CC50 at 24 h [3]: 94.4 µM; IC50 (HeLa cells; Homo sapiens): 43 µM
					COc1ccc(/C=N/NC(=O)c2ccc(N3N=C(c4ccc(Cl)cc4)CC3c3ccc4ccccc4c3)cc2)cc1 (stereo not shown) [Compound H30, (E)-4-(3-(4-Chlorophenyl)-5-(naphthalen-2-yl)-4,5-dihydro-1H-pyrazol-1-yl)-N′-(4-methoxybenzylidene)-benzohydrazide]		IC50 (MCF-7 cells; [6]): 40.4 µM; IC50 (HepG2 cells; Homo sapiens): 38.2 µM; IC50 [1]: 10 µM; IC50 (A549 cells; Homo sapiens): 28.6 µM; melting point: 237 to 239 °C; CC50 at 24 h [3]: 88.5 µM; IC50 (HeLa cells; Homo sapiens): 35.3 µM
					COc1ccc(/C=N/NC(=O)c2ccc(N3N=C(c4ccc(Cl)c(Cl)c4)CC3c3ccc4ccccc4c3)cc2)cc1 (stereo not shown) [Compound H31, (E)-4-(3-(3,4-Dichlorophenyl)-5-(naphthalen-2-yl)-4,5-dihydro-1H-pyrazol-1-yl)-N'-(4-methoxy-benzylidene)benzohydrazide]		IC50 (MCF-7 cells; [6]): 34.4 µM; IC50 (HepG2 cells; Homo sapiens): 36.3 µM; IC50 [1]: 9.66 µM; IC50 (A549 cells; Homo sapiens): 24.8 µM; melting point: 243 to 245 °C; CC50 at 24 h [3]: 84.8 µM; IC50 (HeLa cells; Homo sapiens): 31.8 µM
					COc1ccc(/C=N/NC(=O)c2ccc(N3N=C(c4ccc(Br)cc4)CC3c3ccc4ccccc4c3)cc2)cc1 (stereo not shown) [Compound H32, (E)-4-(3-(4-Bromophenyl)-5-(naphthalen-2-yl)-4,5-dihydro-1H-pyrazol-1-yl)-N′-(4-methoxybenzylidene)-benzohydrazide]		IC50 (MCF-7 cells; [6]): 30.2 µM; IC50 (HepG2 cells; Homo sapiens): 32.9 µM; IC50 [1]: 8.64 µM; IC50 (A549 cells; Homo sapiens): 19.7 µM; melting point: 238 to 240 °C; CC50 at 24 h [3]: 83.6 µM; IC50 (HeLa cells; Homo sapiens): 25.6 µM
					Cc1ccc(C2=NN(C3=NC(=O)CS3)C(c3ccc4ccccc4c3)C2)cc1C (stereo not shown) [Compound e]		IC50 (EGFR; reported compound of Figure 1): 0.12 µM
					COc1ccc(C2CC(c3ccc(C)c(C)c3)=NN2C(N)=S)cc1 (stereo not shown) [a]		IC50 (EGFR; reported compounds of Figure 1): 0.07 µM
					Cc1ccc(C2=NN(C3=NC(=O)CS3)C(c3ccc(Br)cc3)C2)cc1 (stereo not shown) [b]		IC50 (EGFR; reported compounds of Figure 1): 0.24 µM
					Cc1ccc(C2=NN(c3ncc(-c4ccc(Cl)cc4)s3)C(c3ccc(F)cc3)C2)cc1C (stereo not shown) [c]		IC50 (EGFR; reported compounds of Figure 1): 0.06 µM
					CC(=O)N1N=C(c2ccc(C(F)(F)F)cc2)CC1c1ccc(C(=O)OCC(C)n2c([N+](=O)[O-])cnc2C)cc1 (stereo not shown) [d]		IC50 (EGFR; reported compounds of Figure 1): 0.26 µM

Molecule	IC50 (MCF-7 cells; [4]) [µM]	IC50 (HepG2 cells) [µM]	IC50 [1, 5] [µM]	IC50 (A549 cells) [µM]	IC50 (HeLa cells) [µM]	CC50 [2] [µM]	further results
(E)-4-(3-(4-Ethylphenyl)-5-(naphthalen-2-yl)-4,5-dihydro-1H-pyrazol-1-yl)-N′-(3-methoxybenzylidene)-benzohydrazide [Compound H5]	7.72	6.16		5.49	8.71	92.5	
(E)-4-(3-(4-Ethylphenyl)-5-(naphthalen-2-yl)-4,5-dihydro-1H-pyrazol-1-yl)-N′-(4-methoxybenzylidene)-benzohydrazide [Compound H21]	6.33	5.06		4.54	7.93	82.6	
(E)-N′-(3-Methoxybenzylidene)-4-(3-(4-methoxyphenyl)-5-(naphthalen-2-yl)-4,5-dihydro-1H-pyrazol-1-yl)-benzohydrazide [Compound H6]	10.2	11.5		8.32	13.2	81.8	
(E)-N′-(4-Methoxybenzylidene)-4-(3-(4-methoxyphenyl)-5-(naphthalen-2-yl)-4,5-dihydro-1H-pyrazol-1-yl)-benzohydrazide [Compound H22]	9.69	10.5		7.12	12.3	84.7	
